Measured values published in US12692262B2, “Substituted ureas as orexin receptor agonists” (Merck Sharp & Dohme LLC, priority 2020, dated 2026).
pEC50: −log10 of the molar value.

Biological target: T1, human OX2R (Homo sapiens, UniProt O43614)
T1 construct: expressed in transfected cells; host or cells: CHO (Chinese hamster ovary) cells grown under G418 selection
T1 sequence (O43614 1-444): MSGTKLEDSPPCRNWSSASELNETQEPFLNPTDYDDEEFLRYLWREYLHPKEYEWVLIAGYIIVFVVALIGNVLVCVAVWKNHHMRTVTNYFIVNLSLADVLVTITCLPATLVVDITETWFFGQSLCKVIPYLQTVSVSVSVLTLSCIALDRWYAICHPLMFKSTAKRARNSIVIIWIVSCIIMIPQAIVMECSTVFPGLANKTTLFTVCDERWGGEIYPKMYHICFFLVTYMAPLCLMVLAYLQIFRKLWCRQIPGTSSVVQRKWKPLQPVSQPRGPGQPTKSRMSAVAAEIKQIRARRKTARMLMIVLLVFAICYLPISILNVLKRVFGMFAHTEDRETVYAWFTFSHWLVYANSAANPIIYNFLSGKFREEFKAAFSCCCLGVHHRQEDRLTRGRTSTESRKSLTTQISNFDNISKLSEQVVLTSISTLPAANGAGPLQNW
Assay: IPOne (IP-1 accumulation) assay in CHO cells expressing human OX2R
Assay type: cell-based
Conditions: for pEC50: CHO cells expressing human OX2R, IP-One assay, 2 h incubation, four parameter logistic fit, read-out: OX2R Potency, EC50; for % of maximum agonist effect (relative to Orexin A): percent effect vs mean max effect of a reference compound at 1 uM (100% activity vs Orexin A), human OX2R
Outline: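 CHO cells stably expressing human OX2R, grown in Iscove's modified DMEM with 10% FBS; agonist-driven IP-1 accumulation via the Gαq pathway measured by HTRF (D2/AB-cryptate detection after lysis). EC50 taken as the inflection point of a four-parameter logistic fit.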

pEC50 | % of maximum agonist effect (relative to Orexin A) [%] | % of maximum agonist effect (relative to Orexin A) (1 µM) [%] | Structure (SMILES)
8.36 | 100.5 | – | C#CCCCC(NC(=O)N(CC)[C@H](C)c1cccc(-c2cn3ccnc3c(OC)n2)c1)C(F)(F)F (stereo partly drawn) [Example 3-7, 1-ethyl-1-((R)-1-(3-(8-methoxyimidazo[1,2-a]pyrazin-6-yl)phenyl)ethyl)-3-(1,1,1-trifluorohept-6-yn-2-yl)urea]
8.32 | 101.6 | – | CCN(C(=O)N[C@@H](CCC(F)(F)F)C(F)F)[C@@H](c1cc(-c2cn3cc(C)nc3c(OC)n2)c(OC)cn1)C(F)(F)F [Example 4-1, 1-ethyl-3-((S)-1,1,5,5,5-pentafluoropentan-2-yl)-1-((S)-2,2,2-trifluoro-1-(5-methoxy-4-(8-methoxy-2-methylimidazo[1,2-a]pyrazin-6-yl)pyridin-2-yl)ethyl)urea]
8.23 | 99.9 | – | CCN(C(=O)N[C@@H](CCC(F)F)C(F)F)[C@@H](c1cc(-c2cn3cc(C)nc3c(OC)n2)c(OC)cn1)C(F)(F)F [Example 4-2, 1-ethyl-3-((S)-1,1,5,5-tetrafluoropentan-2-yl)-1-((S)-2,2,2-trifluoro-1-(5-methoxy-4-(8-methoxy-2-methylimidazo[1,2-a]pyrazin-6-yl)pyridin-2-yl)ethyl)urea]
7.76 | 101.4 | – | CCN(C(=O)N[C@@H](CCCF)C(F)F)[C@@H](c1cc(-c2cn3ncnc3c(OC)n2)c(OC)cn1)C(F)(F)F [Example 4-3, 1-ethyl-1-((S)-2,2,2-trifluoro-1-(5-methoxy-4-(8-methoxy-[1,2,4]triazolo[1,5-a]pyrazin-6-yl)pyridin-2-yl)ethyl)-3-((S)-1,1,5-trifluoropentan-2-yl)urea]
– | – | 99.1 | CCN(C(=O)N[C@@H](C=C(C)C)C(F)(F)F)[C@H](C)c1cccc(-c2cn3ccnc3c(OC)n2)c1 [Example 5-2, 1-ethyl-1-((R)-1-(3-(8-methoxyimidazo[1,2-a]pyrazin-6-yl)phenyl)ethyl)-3-((S)-1,1,1-trifluoro-4-methylpent-3-en-2-yl)urea]
7.43 | 100.5 | – | C#CC(NC(=O)N(CC)[C@@H](c1cc(-c2cn3ccnc3c(OC)n2)c(OC)cn1)C(F)(F)F)C(F)(F)F (stereo partly drawn) [Example 5-3, 1-ethyl-1-((S)-2,2,2-trifluoro-1-(5-methoxy-4-(8-methoxyimidazo[1,2-a]pyrazin-6-yl)pyridin-2-yl)ethyl)-3-(1,1,1-trifluorobut-3-yn-2-yl)urea]

Further lines, the molecule ahead of its results:

Structure (SMILES) | pEC50 | % of maximum agonist effect (relative to Orexin A) [%] | % of maximum agonist effect (relative to Orexin A) (1 µM) [%]
CCN(C(=O)N[C@@H](C)C(F)(F)F)C(c1cnc(OC)c(-c2cn3ccnc3c(OC)n2)c1)C(F)(F)F (stereo partly drawn) [Example 2-62, 1-ethyl-1-(2,2,2-trifluoro-1-(6-methoxy-5-(8-methoxyimidazo[1,2-a]pyrazin-6-yl)pyridin-3-yl)ethyl)-3-((S)-1,1,1-trifluoropropan-2-yl)urea] | 7.88 | 95.6 | –
CCN(C(=O)N[C@@H](CCC(F)(F)F)C(F)(F)F)C(C)c1ccnc(-c2cn3ccnc3c(OC)n2)n1 (stereo partly drawn) [Example 2-63, 1-ethyl-3-((S)-1,1,1,5,5,5-hexafluoropentan-2-yl)-1-(1-(2-(8-methoxyimidazo[1,2-a]pyrazin-6-yl)pyrimidin-4-yl)ethyl)urea] | 5.98 | 96.2 | –
CCN(C(=O)N[C@@H](CCC(F)(F)F)C(F)(F)F)C(C)c1cnnc(-c2cn3ccnc3c(OC)n2)c1 (stereo partly drawn) [Example 2-64, 1-ethyl-3-((S)-1,1,1,5,5,5-hexafluoropentan-2-yl)-1-(1-(6-(8-methoxyimidazo[1,2-a]pyrazin-6-yl)pyridazin-4-yl)ethyl)urea] | 5.54 | 81.2 | –
C#CC(CCC(F)(F)F)NC(=O)N(CC)[C@H](C)c1cccc(-c2cn3ccnc3c(OC)n2)c1 (stereo partly drawn) [Example 2-65, 1-ethyl-1-((R)-1-(3-(8-methoxyimidazo[1,2-a]pyrazin-6-yl)phenyl)ethyl)-3-(6,6,6-trifluorohex-1-yn-3-yl)urea] | 8.40 | 100.1 | –
CCN(C(=O)NC(c1cccc(F)c1)C(F)(F)F)[C@@H](c1cccc(-c2cn3ccnc3c(OC)n2)c1)C(F)(F)F (stereo partly drawn) [Example 2-66, 1-ethyl-1-((S)-2,2,2-trifluoro-1-(3-(8-methoxyimidazo[1,2-a]pyrazin-6-yl)phenyl)ethyl)-3-(2,2,2-trifluoro-1-(3-fluorophenyl)ethyl)urea] | 8.28 | 97.2 | –
CCN(C(=O)NC1CCC(C(F)(F)F)N(C)C1)[C@@H](c1cccc(-c2cn3ccnc3c(OC)n2)c1)C(F)(F)F (stereo partly drawn) [Example 2-67, 1-ethyl-3-(1-methyl-6-(trifluoromethyl)piperidin-3-yl)-1-((S)-2,2,2-trifluoro-1-(3-(8-methoxyimidazo[1,2-a]pyrazin-6-yl)phenyl)ethyl)urea] | 8.11 | 98.7 | –
CCNC(=O)N(CC)[C@H](C)c1cccc(-c2cc(OC)c3nccn3c2)c1 [Example 2-68, (R)-1,3-diethyl-1-(1-(3-(8-methoxyimidazo[1,2-a]pyridin-6-yl)phenyl)ethyl)urea] | 6.75 | 83.3 | –
CCN(C(=O)N[C@@H](CCCF)C(F)(F)F)[C@@H](c1cc(-c2cn3cc(C)nc3c(OC)n2)c(OC)cn1)C(F)(F)F [Example 3-2, 1-ethyl-3-((S)-1,1,1,5-tetrafluoropentan-2-yl)-1-((S)-2,2,2-trifluoro-1-(5-methoxy-4-(8-methoxy-2-methylimidazo[1,2-a]pyrazin-6-yl)pyridin-2-yl)ethyl)urea] | 8.48 | 102.4 | –
CCN(C(=O)N[C@@H](CCC(F)F)C(F)(F)F)[C@@H](c1cc(-c2cn3cc(C)nc3c(OC)n2)c(OC)cn1)C(F)(F)F [Example 3-3, 1-ethyl-3-((S)-1,1,1,5,5-pentafluoropentan-2-yl)-1-((S)-2,2,2-trifluoro-1-(5-methoxy-4-(8-methoxy-2-methylimidazo[1,2-a]pyrazin-6-yl)pyridin-2-yl)ethyl)urea] | 8.44 | 101.6 | –
CCN(C(=O)N[C@@H](CCC(F)=C(F)F)C(F)(F)F)[C@@H](c1cc(-c2cn3cc(C)nc3c(OC)n2)c(OC)cn1)C(F)(F)F [Example 3-4, 1-ethyl-3-((S)-1,1,1,5,6,6-hexafluorohex-5-en-2-yl)-1-((S)-2,2,2-trifluoro-1-(5-methoxy-4-(8-methoxy-2-methylimidazo[1,2-a]pyrazin-6-yl)pyridin-2-yl)ethyl)urea] | 7.56 | 100.5 | –
CCN(C(=O)N[C@@H](CC1CC1)C(F)(F)F)[C@@H](c1cc(-c2cn3cc(C)nc3c(OC)n2)c(OC)cn1)C(F)(F)F [Example 3-5, 3-((S)-3-cyclopropyl-1,1,1-trifluoropropan-2-yl)-1-ethyl-1-((S)-2,2,2-trifluoro-1-(5-methoxy-4-(8-methoxy-2-methylimidazo[1,2-a]pyrazin-6-yl)pyridin-2-yl)ethyl)urea] | 7.39 | 99.3 | –
CCN(C(=O)NC(CCC1CC1)C(F)(F)F)[C@H](C)c1cccc(-c2cn3ccnc3c(OC)n2)c1 (stereo partly drawn) [Example 3-6, 3-(4-cyclopropyl-1,1,1-trifluorobutan-2-yl)-1-ethyl-1-((R)-1-(3-(8-methoxyimidazo[1,2-a]pyrazin-6-yl)phenyl)ethyl)urea] | 8.59 | 99.7 | –
